Assays:
[1] = biological target: hSERT (Homo sapiens, UniProt P31645); test: effect on efflux of monoamine neurotransmitters, hSERT; format: cell-based
[2] = biological target: hDAT (Homo sapiens, UniProt Q01959); test: effect on efflux of monoamine neurotransmitters, hDAT; format: cell-based
[3] = biological target: hNET (Homo sapiens, UniProt P23975); test: effect on efflux of monoamine neurotransmitters, hNET; format: cell-based
[4] = system: male Sprague-Dawley rats; test: sustained attention task (vigilance index); format: in vivo, rat
Description: The vigilance index (VI) of rats treated with SK609 was evaluated using the following protocol. Substantively, eight water restricted male Sprague-Dawley rats were trained in an operant task of sustained attention (McGaughy & Sarter, 1995, Psychopharm. 117:340-357). In response to both signal and non-signal conditions, a water reward was given for correct responses as a positive reinforcer. Rats were first trained by successive approximation to establish lever pressing behavior. Subjects were then trained to criterion performance on the sustained attention task with a 1,000 msec light stimulus duration and then transferred to 15 msec stimulus duration.
Performance was determined based on a rat's calculated VI: VI=(h−f)/[2*(h+f)−(h+f)^2], wherein h (relative hits)=# Hits/(# Hits+# Misses), and f ([…])=# False Alarms/(# False Alarms+# Correct Rejections).
VI of 1 indicates complete vigilance; VI of 0.35 indicates above chance vigilance; and VI of −1 indicates no vigilance.
Testing occurred over a 45 min session of randomly presented signal and non-signal trials. Criterion performance required a rat to achieve greater than 59% signal and non-signal trials, a VI greater than 0.35 and less than 25% omissions per day for three consecutive days. Once subjects stabilized at a baseline, their responses are no longer considered random.
SK609 was administered intraperitoneally (IP) at various doses 15 min prior to beginning the task. Prazosin was administered IP 30 min prior, and SK609 15 min prior to beginning the task. Data are presented as difference scores for VI from an average baseline (FIGS. 4-6).
The operant conditioning chambers contained a house light (2.8 W), a stimulus light (2.8 W), a pair of retractable levers and water reward apparatus. Eight water-restricted male Sprague-Dawley rats were trained in an operant task of sustained attention. In response to both signal and non-signal conditions, a water reward was given for correct responses as a positive reinforcer.
Rats were first trained by successive approximation to establish lever pressing behavior. Subsequently, the rats were trained to criterion performance. Criterion performance required a rat to achieve greater than 59% signal and non-signal trials, a VI greater than 0.35 and less than 25% omissions per day for three consecutive days.
Prazosin (0.25 mg/kg) and raclopride (0.05 mg/kg) were administered (IP) 30 min prior to the experiment followed by either SK609 (4.0 mg/kg) or MPH (2.0 mg/kg) 15 min prior to beginning the task. Performance was determined based on a rat's calculated Vigilance Index (VI). Data are presented as difference scores for VI from an average baseline.

[5] = system: male Sprague-Dawley rats; test: set-shifting task; format: in vivo, rat; conditions: IP, SK609 4.0 mg/kg or raclopride 0.05 mg/kg, versus saline
Excerpt: Sixteen food-restricted male Sprague-Dawley rats were trained to discriminate between a pair of small ceramic pots in order to retrieve a food reward buried within one of the pots. A pair of pots differed from each other along three possible dimensions: scent, digging medium, or material covering the outer surface of the pot.
Simple discriminations (SD) were made between pots differing from each other along one dimension. Compound Discriminations (CD) were made between pots differing along two dimensions. Intra-dimensional Shifts (IDS) were changes made within a previously tested dimension. Extra-Dimensional Shifts (EDS) were changes made to a previously untested dimension.
Animals were tested on their ability to form an attentional set by attending to the dimension that predicts the food reward. Animals were then tested on their ability to make an IDS, EDS, or reversal by responding only to the new salient dimension while suppressing the urge to respond to the previously salient stimulus.
0.9% saline (1 mg/kg), raclopride (0.05 mg/kg) or SK609 (4 mg/kg) were administered (IP) 30 prior to the experiment followed by 0.9% saline (1 mg/kg) 15 min prior to beginning the task. Animals were tested to criterion performance of 5 consecutive correct trials.

[6] = system: male Sprague-Dawley rats; test: cross maze task; format: in vivo, rat
Excerpt: The experimental design for cross maze task was adapted from Stefani et al, 2003, Behav. Neurosci. 117(4):728-37 (FIG. 7). Ten food-restricted male Sprague-Dawley rats were acclimated to a cross maze whose arms differed by color (red vs blue) or texture (smooth vs rough). A food reward was placed in a food well located at the end of the arm.
Rats were trained to form a mental set by associating a food reward with one feature of one dimension. Rats were subsequently tested on their ability to predict the food reward based on one feature of the alternative dimension.
0.9% saline (1 mg/kg), raclopride (0.05 mg/kg) or SK609 (4 mg/kg) were administered (IP) 30 prior to the experiment, followed by 0.9% saline (1 mg/kg) 15 min prior to beginning the task. Animals were tested to criterion performance of 8 consecutive correct trials.

[7] = efflux measured as percentage of vehicle, FIG. 1
[8] = panel of monoamine neurotransmitter transporters
[9] = SK609 IP 4.0 mg/kg, prazosin IP 0.25 mg/kg or raclopride IP 0.05 mg/kg 30 min prior
[10] = SK609 peak dose 8 mg/kg, FIG. 4

hNET, sequence (P23975 whole entry): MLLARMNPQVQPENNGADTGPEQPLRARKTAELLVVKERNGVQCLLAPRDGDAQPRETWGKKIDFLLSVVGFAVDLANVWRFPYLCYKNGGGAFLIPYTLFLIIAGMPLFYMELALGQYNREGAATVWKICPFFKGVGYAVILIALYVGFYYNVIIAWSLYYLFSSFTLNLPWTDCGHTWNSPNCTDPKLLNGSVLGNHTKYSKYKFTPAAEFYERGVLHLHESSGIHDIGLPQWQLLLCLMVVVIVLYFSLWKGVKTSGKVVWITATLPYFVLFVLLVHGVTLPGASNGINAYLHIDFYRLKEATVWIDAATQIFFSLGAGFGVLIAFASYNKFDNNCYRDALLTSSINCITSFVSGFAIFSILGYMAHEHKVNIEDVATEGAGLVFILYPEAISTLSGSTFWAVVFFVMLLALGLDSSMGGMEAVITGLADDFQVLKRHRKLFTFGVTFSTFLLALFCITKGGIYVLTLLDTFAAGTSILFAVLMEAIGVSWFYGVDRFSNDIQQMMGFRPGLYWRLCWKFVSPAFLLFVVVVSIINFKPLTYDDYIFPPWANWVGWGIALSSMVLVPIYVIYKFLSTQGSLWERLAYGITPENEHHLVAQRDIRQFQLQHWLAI
hDAT, sequence (Q01959 whole entry): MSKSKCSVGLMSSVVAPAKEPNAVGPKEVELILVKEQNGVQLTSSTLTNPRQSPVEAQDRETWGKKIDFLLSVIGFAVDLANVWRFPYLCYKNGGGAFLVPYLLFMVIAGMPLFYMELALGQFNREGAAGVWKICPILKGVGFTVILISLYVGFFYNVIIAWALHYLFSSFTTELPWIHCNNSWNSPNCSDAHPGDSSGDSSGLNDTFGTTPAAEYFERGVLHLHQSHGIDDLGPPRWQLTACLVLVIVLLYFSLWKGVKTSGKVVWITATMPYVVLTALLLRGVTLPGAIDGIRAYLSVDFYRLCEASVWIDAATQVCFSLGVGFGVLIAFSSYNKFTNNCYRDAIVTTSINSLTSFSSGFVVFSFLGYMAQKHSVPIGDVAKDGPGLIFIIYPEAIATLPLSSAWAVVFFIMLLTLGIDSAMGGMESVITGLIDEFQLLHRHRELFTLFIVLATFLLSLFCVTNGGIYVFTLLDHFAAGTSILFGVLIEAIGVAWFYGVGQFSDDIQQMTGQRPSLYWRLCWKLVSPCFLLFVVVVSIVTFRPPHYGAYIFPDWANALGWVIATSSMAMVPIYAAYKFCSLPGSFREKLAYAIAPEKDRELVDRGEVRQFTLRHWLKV
hSERT, sequence (P31645 whole entry): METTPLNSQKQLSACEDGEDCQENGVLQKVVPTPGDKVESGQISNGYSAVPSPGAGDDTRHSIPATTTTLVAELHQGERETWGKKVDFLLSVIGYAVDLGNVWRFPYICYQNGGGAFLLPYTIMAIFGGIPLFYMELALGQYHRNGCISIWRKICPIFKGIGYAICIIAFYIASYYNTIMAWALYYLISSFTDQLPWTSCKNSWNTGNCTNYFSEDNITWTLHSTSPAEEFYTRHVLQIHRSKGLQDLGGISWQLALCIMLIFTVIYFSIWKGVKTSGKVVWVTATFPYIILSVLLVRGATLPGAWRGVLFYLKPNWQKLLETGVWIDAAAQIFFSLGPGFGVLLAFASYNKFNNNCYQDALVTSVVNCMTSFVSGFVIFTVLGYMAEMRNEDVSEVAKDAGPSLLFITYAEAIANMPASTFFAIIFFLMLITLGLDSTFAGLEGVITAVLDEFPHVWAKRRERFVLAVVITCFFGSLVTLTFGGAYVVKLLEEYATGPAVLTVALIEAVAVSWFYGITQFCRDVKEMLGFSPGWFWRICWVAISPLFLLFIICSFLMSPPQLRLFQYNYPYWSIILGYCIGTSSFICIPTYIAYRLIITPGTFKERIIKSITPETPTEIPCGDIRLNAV

Compound	IC50 [1, 7] [µM]	effect on serotonin transporters (SERT) [1, 8]	IC50 [2, 7] [µM]	effect on dopamine transporters (DAT) [2, 8]	IC50 [3, 7] [µM]	effect on NET [3, 8]	peak dose for vigilance index (VI) performance ([4]; IP, doses 2, 4, 8, 10 and 20 mg/kg, inverted-U dose response) [mg/kg]	% omissions ([4]; SK609 8 mg/kg IP)	sustained attention (VI difference from baseline) ([4]; SK609 8 mg/kg IP, 15 min prior to task)	% omissions ([4]; SK609 high doses IP)	performance in EDS, IDS, CD of set-shifting task [5]	cross maze overall performance in 8 trial increments over 80 trials ([6]; SK609 IP 4.0 mg/kg vs saline, p=0.008, FIG. 10B)	cross maze performance (number of trials to reach criterion) ([6]; SK609 IP 4.0 mg/kg, n=5 vs saline n=2, p=0.027, FIG. 10A)	effect of antagonist pre-treatment on MPH VI performance ([4]; MPH IP 2.0 mg/kg, prazosin IP 0.25 mg/kg, n=8)	effect of antagonist pre-treatment on SK609 VI performance [4, 9]	effect of antagonist pre-treatment on SK609 VI performance [4, 10]
CC(N)CCc1ccccc1Cl (stereo not shown) [SK609, 4-(2-chlorophenyl)-butan-2-amine]	35.9	no effect	8.5	no effect	0.29	selective NET antagonism	8	without increasing omissions	enhanced sustained attention	increased the % of omissions	did not differ significantly from saline	improved performance faster and maintained improvements better than saline	improved performance relative to saline			
COc1cc2nc(N3CCN(C(=O)c4ccco4)CC3)nc(N)c2cc1OC [prazosin, 2-[4-(2-furoyl)piperazin-1-yl]-6,7-dimethoxyquinazolin-4-amine, reference compound]														blocked the effects	blocked the effects	completely abrogated
CCN1CCC[C@H]1CNC(=O)c1c(O)c(Cl)cc(Cl)c1OC [raclopride, 3,5-dichloro-N-{[(2S)-1-ethylpyrrolidin-2-yl]methyl}-2-hydroxy-6-methoxybenzamide, reference compound]											impairments in performance relative to controls				blocked the effects	moderately
